Assays:
WT-ADSCs = test: differentiation towards brown-like adipocytes in the presence of BAT inducers; format: cell-based, mouse; conditions: WT-ADSCs with BAT inducers; LEE011 10 μM, PD 0.1 μM; vs vehicle
Experimental: (a, d) Representative images of Oil Red O staining of differentiated ADSCs from WT and K43M mice (a, 10×) or WT-ADSCs treated with CDK4/6 inhibitor LEE011 (10 μM) and PD (0.1 μM) (a, 10×) in the presence of BAT inducers. (b, e) Representative images of Oil Red O staining of differentiated ADSCs from WT and K43M mice (b, 40×) or WT-ADSCs treated with CDK4/6 inhibitor LEE011 10 μM and PD 0.1 μM (e, 40×) in the presence of BAT inducers. (c, f) Representative images of bright field images of differentiated ADSCs from iWAT of WT and K43M mice or WT-ADSCs treated with CDK4/6 inhibitor LEE011 (10 μM) and PD (0.1 μM) (f, 40×) in the presence of BAT inducers.
(a) Relative mRNA levels of BAT markers Ucp-1, Pgc-1α and Cidea in differentiated ADSCs in the presence of BAT inducers. […] (b) lysates from cells were analyzed by immunoblotting for expression of CDK6, UCP-1, PGC-1α, and RUNX1. […]
Cellular differentiation entails the coordination of cell cycle arrest and tissue-specific gene expression. […] Accumulation of lipid-containing cells was detected by Oil red O staining as described (Hansen, J. B., et al. J Biol Chem 274, 2386-2393, 1999) (FIG. 11 a-b) and the characteristic feature of multilocular beige cells were also visualized under light microscopy (FIG. 11c). […]

WT-ADSCs cells = test: anti-proliferation efficacy and cell cycle of CDK4/6 inhibitors against primary adipose derived stem cells; format: cell-based, mouse; conditions: WT-ADSCs treated 6 days, PD 0.1 μM or LEE 10 μM, vs DMSO or vehicle; for frequency of proliferating cells (S-G2-M) / frequency of quiescence cells (G1): flow cytometric cell cycle profile; for total cell numbers: initial plating 5×10^5 cells
Experimental: (a, d) representative flow cytometric cell cycle profiles of WT-ADSCs cells treated with either PD (0.1 μM) or LEE (10 μM) for 6 days. (b, e) histograms summarizing the cell cycle distribution of the cells in A and D. Data shown are mean±s.d. (n=6); *P<0.05 vs DMSO or V, t-test. (c, f) Histograms summarizing the total cell numbers in WT-ADSCs cells treated with DMSO or PD (0.1 μM) for 6 days (c), or WT-ADSCs cells treated with vehicle (0.5% methycellulose) or LEE for 6 days (F). Data shown are mean±s.d. (n=6); *P<0.05 vs DMSO or V, t-test. The initial plating cells were 5×10^5.
To accomplish this, the anti-proliferation efficacy of CDK4/6 inhibitors against primary adipose derived stem cells (ADSCs) from the stromal vascular fraction (SVF) of WT adipose tissue (WT-ADSCs) we assessed. WT-ADSCs were treated with two known commercial available CDK4/6 inhibitors PD0332991 (PD) and LEE011 (LEE), two clinically relevant small molecule inhibitors of CDK4 and CDK6 kinases (Rader, J., et al. Clin Cancer Res 19, 6173-6182, 2013); Fry, D. W., et al. Mol Cancer Ther 3, 1427-1438, 2004; Pikman, Y., et al. Clin Cancer Res 23, 1012-1024, 2017) for 6 days with commonly used relevant effective doses (Fry, D. W., et al. Mol Cancer Ther 3, 1427-1438, 2004; Pikman, Y., et al. Clin Cancer Res 23, 1012-1024, 2017).

Compound: CN(C)C(=O)c1cc2cnc(Nc3ccc(N4CCNCC4)cn3)nc2n1C1CCCC1 [LEE011, Ribociclib]
- brown-like adipocyte differentiation (WT-ADSCs): can induce brown-like adipocytes in vitro
- frequency of proliferating cells (S-G2-M) (WT-ADSCs cells): dramatic reduction
- frequency of quiescence cells (G1) (WT-ADSCs cells): increased frequency
- total cell numbers (WT-ADSCs cells): successfully reduced

Compound: CC(=O)c1c(C)c2cnc(Nc3ccc(N4CCNCC4)cn3)nc2n(C2CCCC2)c1=O [PD0332991, palbociclib]
- brown-like adipocyte differentiation (WT-ADSCs): can induce brown-like adipocytes in vitro
- frequency of proliferating cells (S-G2-M) (WT-ADSCs cells): dramatic reduction
- frequency of quiescence cells (G1) (WT-ADSCs cells): increased frequency
- total cell numbers (WT-ADSCs cells): successfully reduced
